Source: PubChem BioAssay (NCI)
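Dose response: 5 concentrations. Exposure: 48 h. Format: 96-well plates. Endpoint: linear interpolation; highest concentration if not reached. GI50: concentration for 50% inhibition of growth. Definition used: TGI = concentration required for complete inhibition of growth.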

Assays:
Assay in all cases: NCI anticancer screen, dose series, 48 h
[1] = tested on: 786-0 renal
[2] = tested on: A498 renal
[3] = tested on: A549 NSCLC
[4] = tested on: ACHN renal
[5] = tested on: BT-549 breast
[6] = tested on: CAKI-1 renal
[7] = tested on: CCRF-CEM leukemia
[8] = tested on: COLO 205 colon
[9] = tested on: DU-145 prostate
[10] = tested on: EKVX NSCLC
[11] = tested on: HCC-2998 colon
[12] = tested on: HCT-116 colon
[13] = tested on: HCT-15 colon
[14] = tested on: HL-60(TB) leukemia
[15] = tested on: HOP-62 NSCLC
[16] = tested on: HOP-92 NSCLC
[17] = tested on: HS 578T breast
[18] = tested on: HT29 colon
[19] = tested on: IGROV1 ovarian
[20] = tested on: K-562 leukemia
[21] = tested on: KM12 colon
[22] = tested on: LOX IMVI melanoma
[23] = tested on: M14 melanoma
[24] = tested on: MALME-3M melanoma
[25] = tested on: MCF7 breast
[26] = tested on: MDA-MB-231 breast
[27] = tested on: MDA-MB-435
[28] = tested on: MOLT-4 leukemia
[29] = tested on: NCI-H226 lung
[30] = tested on: NCI-H23 lung
[31] = tested on: NCI-H460 lung
[32] = tested on: NCI-H522 lung
[33] = tested on: NCI/ADR-RES ovarian
[34] = tested on: OVCAR-3 ovarian
[35] = tested on: OVCAR-4 ovarian
[36] = tested on: OVCAR-5 ovarian
[37] = tested on: OVCAR-8 ovarian
[38] = tested on: PC-3 prostate
[39] = tested on: RPMI-8226 leukemia
[40] = tested on: RXF 393 renal
[41] = tested on: SF-268 CNS
[42] = tested on: SF-295 CNS
[43] = tested on: SF-539 CNS
[44] = tested on: SK-MEL-2 melanoma
[45] = tested on: SK-MEL-28 melanoma
[46] = tested on: SK-MEL-5 melanoma
[47] = tested on: SK-OV-3 ovarian
[48] = tested on: SN12C renal
[49] = tested on: SNB-19 CNS
[50] = tested on: SNB-75 CNS
[51] = tested on: SR leukemia
[52] = tested on: SW-620 colon
[53] = tested on: T-47D breast
[54] = tested on: TK-10 renal
[55] = tested on: U251 CNS
[56] = tested on: UACC-257 melanoma
[57] = tested on: UACC-62 melanoma
[58] = tested on: UO-31 renal

COc1cc2c(c(OC)c1OC)-c1ccc(OC)c(=O)cc1[C@@H](NC(=O)CCl)CC2
GI50 [1]: < 10 nM | TGI [1]: 1700 nM | GI50 [2]: < 10 nM | TGI [2]: 164 nM | GI50 [3]: < 14.1 nM | TGI [3]: 25600 nM | GI50 [4]: 29.5 nM | TGI [4]: > 54100 nM | GI50 [5]: < 10 nM | GI50 [6]: 38.6 nM | TGI [6]: 21200 nM | GI50 [7]: < 10 nM | TGI [7]: > 33300 nM | GI50 [8]: < 10 nM | TGI [8]: < 10 nM | GI50 [9]: < 10 nM | TGI [9]: < 10 nM | GI50 [10]: < 19.1 nM | TGI [10]: 23700 nM | GI50 [11]: < 10 nM | TGI [11]: 22300 nM | GI50 [12]: < 10 nM | TGI [12]: 15.7 nM | GI50 [13]: 30.8 nM | TGI [13]: > 100000 nM | GI50 [14]: < 10 nM | TGI [14]: < 13.6 nM | GI50 [15]: < 10 nM | TGI [15]: 10200 nM | TGI [16]: 7200 nM | GI50 [17]: < 10 nM | TGI [17]: > 100000 nM | GI50 [18]: < 10 nM | TGI [18]: 10100 nM | GI50 [19]: < 10 nM | TGI [19]: 21900 nM | GI50 [20]: < 10 nM | TGI [20]: > 100000 nM | GI50 [21]: < 10 nM | TGI [21]: 52.1 nM | GI50 [22]: < 10 nM | GI50 [23]: < 10 nM | TGI [23]: < 10 nM | GI50 [24]: 2510 nM | TGI [24]: 26500 nM | GI50 [25]: < 10 nM | TGI [25]: 17400 nM | GI50 [26]: < 10 nM | TGI [26]: > 46000 nM | GI50 [27]: < 10 nM | TGI [27]: < 10 nM | GI50 [28]: < 10 nM | TGI [28]: > 100000 nM | GI50 [29]: 35.7 nM | TGI [29]: 10900 nM | GI50 [30]: < 10 nM | TGI [30]: > 33000 nM | GI50 [31]: < 10 nM | TGI [31]: 585 nM | GI50 [32]: < 10 nM | TGI [32]: < 10 nM | GI50 [33]: 142 nM | TGI [33]: > 23200 nM | GI50 [34]: < 10 nM | TGI [34]: < 10 nM | GI50 [35]: < 10 nM | TGI [35]: > 100000 nM | TGI [36]: 30500 nM | GI50 [37]: < 10 nM | TGI [37]: > 33600 nM | GI50 [38]: < 10 nM | TGI [38]: 30900 nM | GI50 [39]: < 10 nM | TGI [39]: 15800 nM | GI50 [40]: < 10 nM | TGI [40]: 19500 nM | GI50 [41]: < 10 nM | TGI [41]: 3530 nM | GI50 [42]: < 10 nM | TGI [42]: 74.3 nM | GI50 [43]: < 10 nM | TGI [43]: 23700 nM | GI50 [44]: < 10 nM | TGI [44]: 10300 nM | GI50 [45]: 304 nM | TGI [45]: 53800 nM | GI50 [46]: < 10 nM | TGI [46]: < 12.4 nM | GI50 [47]: < 10 nM | GI50 [48]: < 14.2 nM | TGI [48]: > 51500 nM | GI50 [49]: < 10 nM | TGI [49]: 28700 nM | GI50 [50]: < 10 nM | TGI [50]: 54700 nM | GI50 [51]: < 10 nM | TGI [51]: > 95700 nM | GI50 [52]: < 10 nM | TGI [52]: 12000 nM | GI50 [53]: 13200 nM | TGI [53]: > 59000 nM | GI50 [54]: 64.7 nM | TGI [54]: 14200 nM | GI50 [55]: < 10 nM | TGI [55]: 2020 nM | GI50 [56]: 1160 nM | TGI [56]: 31800 nM | GI50 [57]: < 10 nM | TGI [57]: 20100 nM | GI50 [58]: 67.3 nM | TGI [58]: 45300 nM
